# System: swine sperms
# Test: Swine sperm motility analyzed by CASA during incubation with NMN alone or NMN+PQQ
# Type: cell-based
# Experimental: Upon arrival of a pack containing swine diluted semen (sperm concentration (total sperm count) 30,000,000/ml, HIRO-SWINE B solution (HIROSHIMA CRYO-PRESERVATION SERVICE) was used as a diluent) provided by Oita Prefectural Agriculture, Forestry and Fisheries Research Center, the pack was immediately stored in an incubator at 15° C. The next day, 5 ml of the above semen from each pack was transferred to a 15 ml centrifuge tube, NMN was added to concentrations from 0.1 to 100 μM (0.1 μM, 1 μM, 10 μM, 100 μM) using HIRO-SWINE B solution as a culture medium, and they were incubated at 37° C. for up to 6 hours. For some diluted semen, pyrrolo-quinoline quinone (PQQ) (MITSUBISHI GAS CHEMICAL COMPANY, INC) was added to a concentration of 100 nM, in addition to NMN or without the addition of NMN, and it was incubated in the same manner. Sperms were taken out at 0, 2, 4, and 6 hours after the start of incubation, and their sperm motility was analyzed using CASA (HT CASA-Ceros II (product name), Hamilton Thorne, Inc.). […] The error bars in FIG. 2 represent standard errors. Sperm motion loci were also photographed by phase contrast microscopy at 2, 4, and 6 hours after the start of incubation and the photographs were shown in FIG. 3.
# [1] = NMN alone addition zone (PQQ-), 0.1-100 μM, effect observed up to 4 hours later
# [2] = NMN alone addition zone, 6 hours later
structure (smiles),measurement,setting,value
"NC(=O)c1ccc[n+]([C@@H]2O[C@H](COP(=O)([O-])O)[C@@H](O)[C@H]2O)c1 [NMN, nicotinamide mononucleotide]",total moment (proportion of sperms in motion to total sperms counted),"NMN 0.1-100 μM added to swine diluted semen, 37° C., up to 6 hours",not affected
same,straight (forward) moment,[1],significantly increased
same,straight (forward) speed,[1],significantly increased
same,improving effect on the straight moment,[2],disappeared
same,improving effect on the straight speed,[2],disappeared

# Source: US20230321127A1, “SPERM MOTILITY IMPROVING AGENT AND SPERM MOTILITY IMPROVING METHOD” (MIRAILAB BIOSCIENCE INC., priority 2020, published 2023)
